Like-named read-outs stand apart in the source and are kept apart here. One block for each compound: values may come before it.
Tested on: TGF-β signaling (PAI-1 promoter-luciferase in HepG2 cells)
Experiment: Assay 1: PAI-1 promoter luciferase reporter assay in HepG2 cells exposed to TGF-β
Procedure: The assay was performed in HepG2 cells stably transfected with the PAI-1 promoter (known to be a strong TGF-β responsive promoter) linked to a luciferase (firefly) reporter gene. The compounds were selected on their ability to inhibit luciferase activity in cells exposed to TGF-β. In addition cells were transfected with a second luciferase (Renilla) gene which was not driven by a TGF-β responsive promoter and was used as a toxicity control.
(96 well) microplates are seeded, using a multidrop apparatus, with the stably transfected cell line at a concentration of 35000 cells per well in 200 μl of serum-containing medium. These plates are placed in a cell incubator.
18 to 24 hours later (Day 2), cell-incubation procedure is launched. Cells are incubated with TGF-β and a candidate compound at concentrations in the range 50 nM to 10 μM (final concentration of DMSO 1%). The final concentration of TGF-β (rhTGFβ-1) used in the test is 1 ng/mL. […] The final volume of the test reaction is 150 μl. Each well contains only one candidate compound and its effect on the PAI-1 promoter is monitored.
Columns 11 and 12 are employed as controls. Column 11 contains 8 wells in which the cells are incubated in the presence of TGF-β, without a candidate compound. Column 11 is used to determine the ‘reference TGF-β induced firefly luciferase value’ against which values measured in the test wells (to quantify inhibitory activity) may be compared. In wells A12 to D12, cells are grown in medium without TGF-β. […]
12 to 18 hours later (day 3), the luciferase quantification procedure is launched. […] Following agitation (15 to 30 mins), luciferase activities of the plates are read in a dual-injector luminometer (BMG lumistar). For this purpose, 50 μl of luciferase assay reagent and 50 μl of ‘Stop & Glo’ buffer are injected sequentially to quantify the activities of both luciferases. […] For each of the compounds tested, a concentration response curve is constructed from which an IC50 value can be determined graphically.

SMILES: O=C1C=CCC1 [CPO, Cyclopentenone, reference compound]
firefly and renilla luciferase activities relative to those obtained in column 11 (TGF-β only) (500 μM CPO in presence of TGF-β, toxicity control wells E12 to H12): around 50%

IC50 (Homo sapiens, HepG2, read-out: IC50 value in Assay 1 (inhibition of TGF-β induced firefly luciferase activity)): ~0.05 µM
SMILES: c1ccc(-c2n[nH]cc2-c2ccc3ncccc3n2)nc1 [Example 1, 2-(3-Pyridin-2-yl-1H-pyrazol-4-yl)-1,5-naphthyridine]

IC50 (read-out: IC50 value in Assay 1 (inhibition of TGF-β induced firefly luciferase activity), HepG2 cells stably transfected with PAI-1 promoter-luciferase, rhTGFβ-1 1 ng/mL, 1% DMSO): ~0.05 µM
SMILES: Cc1cccc(-c2n[nH]cc2-c2ccc3ncccc3n2)n1 [Example 2]

— patent US20040063949A1, “Compounds” (priority 2001, published 2004)
